# From PMC8370248, “Key Metabolic Enzymes Involved in Remdesivir Activation in Human Lung Cells” (Antimicrobial Agents and Chemotherapy, 2021)
# “And” between values parts separate entries of the source, which are not always exact repeats. Equal values may be shown once. Read-outs that look alike come from different tables or passages of the source.
# Legend:
# SARS-CoV-2 = experiment: microbe, parasite or virus in culture; type: cell-based
# CES1b = biological target: T1, CES1b (Homo sapiens, UniProt P23141); experiment: CES1b-catalyzed hydrolysis of RDV and control (substrate disappearance, LC-MS); type: in vitro ADME
# T1 construct: purchased Corning Incorporated (Corning, NY); host or cells: baculovirus-infected insect cells (microsomal fraction, Supersomes)
# T1 sequence (P23141 18-567): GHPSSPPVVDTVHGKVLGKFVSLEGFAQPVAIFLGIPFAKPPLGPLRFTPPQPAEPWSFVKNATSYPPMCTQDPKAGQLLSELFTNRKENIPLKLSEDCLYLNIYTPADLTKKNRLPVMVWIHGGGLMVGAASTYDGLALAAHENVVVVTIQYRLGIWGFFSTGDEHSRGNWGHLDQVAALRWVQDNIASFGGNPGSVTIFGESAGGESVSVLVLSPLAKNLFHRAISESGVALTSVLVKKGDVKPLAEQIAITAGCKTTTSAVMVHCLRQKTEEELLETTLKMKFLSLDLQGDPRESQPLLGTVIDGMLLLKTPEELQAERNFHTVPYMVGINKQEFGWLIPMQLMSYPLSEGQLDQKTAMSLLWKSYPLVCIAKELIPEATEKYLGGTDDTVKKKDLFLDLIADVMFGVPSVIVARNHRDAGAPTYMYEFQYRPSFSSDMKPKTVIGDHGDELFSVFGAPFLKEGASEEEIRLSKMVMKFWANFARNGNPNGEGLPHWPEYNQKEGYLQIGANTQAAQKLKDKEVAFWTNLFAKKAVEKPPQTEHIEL
# Method: (§1) The catalytic activity of carboxylesterase 1b (CES1b), carboxylesterase 1c (CES1c), CES2, and CatA toward RDV hydrolysis was measured using protein-enriched subcellular fraction (CES isozymes) or recombinant proteins (CatA). The reaction rates were determined by monitoring the disappearance of RDV using a liquid chromatography-mass spectrometry (LC-MS) method.
# (§2) RDV or positive-control substrates (oseltamivir for CES1 or procaine for CES2) were incubated with individual Supersome preparations (final CES concentration, 1.5 mg/ml) in 0.1 M potassium phosphate buffer (pH 7.4) at 37°C. Substrates were added to a final concentration of 1 μM to initiate the reaction. The final incubation volume was 250 μl. Aliquots were removed after incubation for 0, 10, 30, 60, and 120 min. The reactions were stopped by the addition of the quench solution containing the LC-MS internal standard (IS) (labetalol). Following protein precipitation and centrifugation, 150 μl of supernatant was dried down and reconstituted with 250 μl water. All samples were analyzed by an LC-MS, and the analyte/internal standard peak area ratio (PAR) values were used for quantification. Disappearance of RDV or positive-control compounds was monitored over the incubation time period. Three experiments were conducted with two replicates in each experiment, and data are reported as averages from the three experiments.
# (§3) In all studies apart from those with CES1 and CatA with enzyme inhibitors, samples (10-μl aliquots) were injected with a Thermo Scientific autosampler. The LC instrumentation consisted of a Thermo Scientific Dionex UltiMate 3000 RS pump, and the LC column was a Waters Acquity UPLC BEH C18 (1.7 μm particle size, 2.1 by 50 mm). Mobile phases A and B were water 99.9% (vol/vol) containing 0.1% (vol/vol) formic acid, and acetonitrile 99.9% (vol/vol) containing 0.1% (vol/vol) formic acid, respectively, pumped at 0.2 ml/minute. Elution was achieved by a series of linear gradients over 2.33 min followed by reequilibration for 2.57 min. The MS instrument was a Thermo Q Exactive Hybrid Quadrupole-Orbitrap operating in positive or negative ionization mode as appropriate. This was calibrated on a weekly basis, and data were processed with GMSU 8.4.66 software by Gubbs Inc. (Alpharetta, GA). Mass tolerance of 5 ppm was used.
# CES2 = biological target: T2, CES2 (Homo sapiens, UniProt O00748); experiment: CES2-catalyzed hydrolysis of RDV and control (substrate disappearance, LC-MS); type: in vitro ADME; details: for half-life at 1 μM: human, CES2 Supersomes (protein-enriched subcellular fraction)
# T2 construct: purchased Corning Incorporated (Corning, NY); host or cells: baculovirus-infected insect cells (microsomal fraction, Supersomes)
# T2 sequence (O00748 27-559): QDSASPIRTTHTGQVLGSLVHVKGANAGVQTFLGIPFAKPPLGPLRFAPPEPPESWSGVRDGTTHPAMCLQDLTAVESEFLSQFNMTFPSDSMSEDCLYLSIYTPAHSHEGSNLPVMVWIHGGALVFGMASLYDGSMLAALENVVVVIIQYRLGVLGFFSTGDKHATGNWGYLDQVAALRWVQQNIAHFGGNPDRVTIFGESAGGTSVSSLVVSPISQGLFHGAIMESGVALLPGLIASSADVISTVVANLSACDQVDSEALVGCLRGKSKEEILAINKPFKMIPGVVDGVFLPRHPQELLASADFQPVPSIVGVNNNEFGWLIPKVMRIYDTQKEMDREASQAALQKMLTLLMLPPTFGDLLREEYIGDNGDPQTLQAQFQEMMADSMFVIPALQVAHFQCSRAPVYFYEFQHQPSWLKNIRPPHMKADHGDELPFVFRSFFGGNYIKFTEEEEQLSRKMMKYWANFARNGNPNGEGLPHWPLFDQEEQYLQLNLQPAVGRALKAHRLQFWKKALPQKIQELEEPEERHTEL
# Method: as §1, §2, §3
# CES1c = biological target: T3, CES1c (Homo sapiens, UniProt P23141); experiment: CES1c-catalyzed hydrolysis of RDV and control (substrate disappearance, LC-MS); type: in vitro ADME
# T3 construct: purchased Corning Incorporated (Corning, NY); host or cells: baculovirus-infected insect cells (microsomal fraction, Supersomes)
# T3 sequence (P23141 18-566 isoform P23141-3 limits assumed): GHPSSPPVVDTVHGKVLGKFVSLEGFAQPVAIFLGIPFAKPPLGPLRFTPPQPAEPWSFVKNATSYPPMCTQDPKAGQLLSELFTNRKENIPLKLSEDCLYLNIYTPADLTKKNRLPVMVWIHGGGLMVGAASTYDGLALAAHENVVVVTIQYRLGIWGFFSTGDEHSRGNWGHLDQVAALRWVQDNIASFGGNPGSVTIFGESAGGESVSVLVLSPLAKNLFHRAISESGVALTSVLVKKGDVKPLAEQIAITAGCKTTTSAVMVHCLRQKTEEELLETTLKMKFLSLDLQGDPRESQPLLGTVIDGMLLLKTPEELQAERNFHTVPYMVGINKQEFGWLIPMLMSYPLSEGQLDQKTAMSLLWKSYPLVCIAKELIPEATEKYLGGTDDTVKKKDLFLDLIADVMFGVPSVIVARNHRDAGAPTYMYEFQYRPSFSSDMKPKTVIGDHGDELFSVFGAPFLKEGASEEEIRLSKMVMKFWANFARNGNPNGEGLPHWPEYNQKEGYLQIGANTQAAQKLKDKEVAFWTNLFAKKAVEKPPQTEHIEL
# Method: as §1, §2, §3
# [1] = times faster than positive control oseltamivir
structure (smiles),measurement,setting,value
"CCC(CC)COC(=O)[C@H](C)N[P@](=O)(OC[C@H]1O[C@@](C#N)(c2ccc3c(N)ncnn23)[C@H](O)[C@@H]1O)Oc1ccccc1 [RDV, Remdesivir]","Fold-RDV EC50, RDV + 0.5 μM telaprevir","SARS-CoV-2; EC50 of combination divided by EC50 of RDV (plus DMSO), 0.5 μM telaprevir",1.70 ± 0.19
same,"Fold-RDV EC50, RDV + 2.5 μM telaprevir","SARS-CoV-2; EC50 of combination divided by EC50 of RDV (plus DMSO), 2.5 μM telaprevir",2.27 ± 0.25
same,"Fold-RDV EC50, RDV + 10 μM telaprevir","SARS-CoV-2; EC50 of combination divided by EC50 of RDV (plus DMSO), 10 μM telaprevir",2.9 and 2.91 ± 0.65
same,EC50,"SARS-CoV-2; Severe acute respiratory syndrome coronavirus 2, 48 h, compound alone (plus DMSO), A549-hACE2 cells, 48 h",~99 nM
same,half-life at 1 μM,"CES1b; human, CES1b Supersomes (protein-enriched subcellular fraction), 1 μM substrate, CES 1.5 mg/ml, pH 7.4, 37°C, read-out: t1/2, CES1b (converted)",9.7 min
same,CES1b hydrolysis rate relative to oseltamivir,CES1b; [1],2 times
same,"Activity for amidate ester cleavage, CES2","CES2; 1 μM substrate, CES 1.5 mg/ml, pH 7.4, 37°C",2.8 ± 2.6 × 10^−4 nmol/min/mg
same,half-life at 1 μM,"CES2; pH 7.4, 1 μM substrate, CES 1.5 mg/ml, pH 7.4, 37°C, read-out: t1/2, CES2 (converted)",> 1000 min
same,half-life at 1 μM,"CES2; pH 7.4, as stated in text, read-out: half-life, CES2",> 960 min
same,half-life at 1 μM,"CES1c; human, CES1c Supersomes (protein-enriched subcellular fraction), 1 μM substrate, CES 1.5 mg/ml, pH 7.4, 37°C, read-out: t1/2, CES1c (converted)",7.7 min
same,CES1c hydrolysis rate relative to oseltamivir,CES1c; [1],4 times
